Data taken from the OligoGym collection.
HELM strings list units from the 5' end as sugar, base in round brackets, then linkage (d deoxyribose, r ribose, m 2'-O-methyl, p phosphodiester). Strings are as the collection lists them; they lack the last nucleoside at the 3' end of the tested compound. [moe] = 2'-O-(2-methoxyethyl) (MOE); [sp] = phosphorothioate linkage; [m5C] = 5-methylcytosine

Target: GFAP
Assay: mouse, dose not given
Conditions: ASO

Row | Substance | 3 h FOB score [score 0-7]
1 | RNA1{[moe](G)[sp].[moe](T)p.[moe](G)p.[moe]([m5C])p.[moe](T)p.[moe](T)p.d(T)[sp].d(T)[sp].d(G)[sp].d([m5C])[sp].d([m5C])[sp].d([m5C])[sp].d([m5C])[sp].d([m5C])[sp].d(T)[sp].d(G)[sp].[moe](T)p.[moe](A)[sp].[moe](G)}$$$$ (last 3' nucleoside missing) | 3
2 | RNA1{[moe](T)[sp].[moe](G)p.[moe](A)p.[moe](G)p.[moe](G)[sp].d([m5C])[sp].d(T)[sp].d(T)[sp].d(T)[sp].d(T)[sp].d(G)[sp].d(A)[sp].d(G)[sp].d(A)[sp].d(T)[sp].[moe](A)p.[moe](T)p.[moe]([m5C])[sp].[moe](T)}$$$$ (last 3' nucleoside missing) | 3
3 | RNA1{[moe](G)[sp].[moe](A)p.[moe](G)p.[moe](T)p.d(G)[sp].d(T)[sp].d(G)[sp].d(T)[sp].d(A)[sp].d(T)[sp].d(T)[sp].d(A)[sp].d(G)[sp].d(G)[sp].[moe](A)p.[moe](T)p.[moe]([m5C])p.[moe]([m5C])[sp].[moe]([m5C])}$$$$ (last 3' nucleoside missing) | 4
4 | RNA1{[moe]([m5C])[sp].[moe](G)p.[moe](G)p.[moe](A)p.[moe](T)[sp].d([m5C])[sp].d(T)[sp].d([m5C])[sp].d(T)[sp].d(T)[sp].d(T)[sp].d([m5C])[sp].d(A)[sp].d(G)[sp].d(G)[sp].[moe](G)p.[moe]([m5C])p.[moe](T)[sp].[moe](G)}$$$$ (last 3' nucleoside missing) | 5
5 | RNA1{[moe](T)[sp].[moe](G)p.[moe](G)p.[moe](T)p.[moe]([m5C])p.d([m5C])[sp].d(T)[sp].d(A)[sp].d(A)[sp].d(A)[sp].d(T)[sp].d(A)[sp].d(T)[sp].d(T)[sp].d([m5C])[sp].[moe](T)p.[moe](A)p.[moe](G)[sp].[moe](T)}$$$$ (last 3' nucleoside missing) | 1
6 | RNA1{[moe](T)[sp].[moe](T)p.[moe](A)p.[moe](T)p.[moe](T)[sp].d(T)[sp].d(T)[sp].d(T)[sp].d([m5C])[sp].d([m5C])[sp].d(T)[sp].d([m5C])[sp].d(A)[sp].[moe](G)p.[moe]([m5C])p.[moe](G)[sp].[moe](A)}$$$$ (last 3' nucleoside missing) | 0
7 | RNA1{[moe](T)[sp].[moe](T)p.[moe](T)p.[moe](A)p.[moe](T)p.[moe]([m5C])p.d(T)[sp].d(G)[sp].d(T)[sp].d(G)[sp].d([m5C])[sp].d(T)[sp].d(T)[sp].d(T)[sp].d(A)[sp].d(G)[sp].[moe](T)p.[moe](G)[sp].[moe](A)}$$$$ (last 3' nucleoside missing) | 3
8 | RNA1{[moe](T)[sp].[moe](G)p.[moe](A)p.[moe]([m5C])p.[moe]([m5C])[sp].d(T)[sp].d(G)[sp].d(T)[sp].d(G)[sp].d(A)[sp].d([m5C])[sp].d(T)[sp].d(A)[sp].d(T)[sp].d([m5C])[sp].[moe](T)p.[moe](A)p.[moe](G)[sp].[moe](G)}$$$$ (last 3' nucleoside missing) | 5
9 | RNA1{[moe]([m5C])[sp].[moe](T)p.[moe](T)p.[moe](T)p.d(T)[sp].d(G)[sp].d(A)[sp].d(G)[sp].d(A)[sp].d(T)[sp].d(A)[sp].d(T)[sp].d([m5C])[sp].d(T)[sp].[moe](T)p.[moe](G)p.[moe](T)p.[moe](G)[sp].[moe](A)}$$$$ (last 3' nucleoside missing) | 1
10 | RNA1{[moe](A)[sp].[moe]([m5C])p.[moe](T)p.[moe](A)p.d(G)[sp].d(T)[sp].d([m5C])[sp].d(A)[sp].d(G)[sp].d([m5C])[sp].d([m5C])[sp].d(T)[sp].d(G)[sp].d(G)[sp].[moe](T)p.[moe](T)p.[moe](A)p.[moe](G)[sp].[moe]([m5C])}$$$$ (last 3' nucleoside missing) | 2
11 | RNA1{[moe](T)[sp].[moe](G)p.[moe](T)p.[moe](A)p.[moe](T)p.d(T)[sp].d(A)[sp].d(G)[sp].d(G)[sp].d(A)[sp].d(T)[sp].d([m5C])[sp].d([m5C])[sp].d([m5C])[sp].d(A)[sp].[moe](T)p.[moe]([m5C])p.[moe](T)[sp].[moe](A)}$$$$ (last 3' nucleoside missing) | 4
12 | RNA1{[moe](T)[sp].[moe](T)p.[moe](G)p.[moe](T)p.d(G)[sp].d(A)[sp].d(T)[sp].d(T)[sp].d(T)[sp].d(T)[sp].d([m5C])[sp].d([m5C])[sp].d([m5C])[sp].d([m5C])[sp].[moe](G)p.[moe](T)p.[moe]([m5C])p.[moe](T)[sp].[moe](T)}$$$$ (last 3' nucleoside missing) | 0
13 | RNA1{[moe]([m5C])[sp].[moe](T)p.[moe](G)p.[moe]([m5C])p.[moe]([m5C])p.d(A)[sp].d(T)[sp].d(T)[sp].d(T)[sp].d(A)[sp].d(T)[sp].d([m5C])[sp].d(T)[sp].d(G)[sp].d(T)[sp].[moe](G)p.[moe]([m5C])p.[moe](T)[sp].[moe](T)}$$$$ (last 3' nucleoside missing) | 2
14 | RNA1{[moe](A)[sp].[moe](T)p.[moe](T)p.[moe](T)p.[moe](G)p.[moe](G)p.d([m5C])[sp].d(A)[sp].d(G)[sp].d(T)[sp].d(A)[sp].d(T)[sp].d(T)[sp].d(A)[sp].d([m5C])[sp].d([m5C])[sp].[moe](T)p.[moe]([m5C])[sp].[moe](T)}$$$$ (last 3' nucleoside missing) | 0
15 | RNA1{[moe](T)[sp].[moe]([m5C])p.[moe](T)p.[moe](G)p.[moe]([m5C])[sp].d([m5C])[sp].d(A)[sp].d(T)[sp].d(T)[sp].d(T)[sp].d(A)[sp].d(T)[sp].d([m5C])[sp].[moe](T)p.[moe](G)p.[moe](T)[sp].[moe](G)}$$$$ (last 3' nucleoside missing) | 3
16 | RNA1{[moe](G)[sp].[moe](G)p.[moe](T)p.[moe]([m5C])p.[moe]([m5C])p.d(T)[sp].d(A)[sp].d(A)[sp].d(A)[sp].d(T)[sp].d(A)[sp].d(T)[sp].d(T)[sp].d([m5C])[sp].d(T)[sp].[moe](A)p.[moe](G)p.[moe](T)[sp].[moe]([m5C])}$$$$ (last 3' nucleoside missing) | 1
17 | RNA1{[moe](T)[sp].[moe](T)p.[moe](G)p.[moe](T)p.[moe]([m5C])[sp].d(T)[sp].d(T)[sp].d(T)[sp].d(A)[sp].d(T)[sp].d(T)[sp].d(T)[sp].d(T)[sp].d(T)[sp].d([m5C])[sp].[moe]([m5C])p.[moe](T)p.[moe]([m5C])[sp].[moe](A)}$$$$ (last 3' nucleoside missing) | 1
18 | RNA1{[moe]([m5C])[sp].[moe](T)p.[moe](T)p.[moe](T)p.[moe](A)[sp].d(T)[sp].d(T)[sp].d(T)[sp].d(T)[sp].d(T)[sp].d([m5C])[sp].d([m5C])[sp].d(T)[sp].[moe]([m5C])p.[moe](A)p.[moe](G)[sp].[moe]([m5C])}$$$$ (last 3' nucleoside missing) | 4
19 | RNA1{[moe](G)[sp].[moe](T)p.[moe]([m5C])p.[moe](T)p.[moe]([m5C])[sp].d(A)[sp].d(G)[sp].d(T)[sp].d(T)[sp].d(T)[sp].d(T)[sp].d([m5C])[sp].d([m5C])[sp].d(T)[sp].d([m5C])[sp].[moe]([m5C])p.[moe](A)p.[moe](G)[sp].[moe]([m5C])}$$$$ (last 3' nucleoside missing) | 0
20 | RNA1{[moe](G)[sp].[moe](T)p.[moe](G)p.[moe]([m5C])p.d(T)[sp].d(T)[sp].d(T)[sp].d(T)[sp].d(G)[sp].d([m5C])[sp].d([m5C])[sp].d([m5C])[sp].d([m5C])[sp].d([m5C])[sp].[moe](T)p.[moe](G)p.[moe](T)p.[moe](A)[sp].[moe](G)}$$$$ (last 3' nucleoside missing) | 3
21 | RNA1{[moe](G)[sp].[moe](A)p.[moe](T)p.[moe](T)p.[moe](T)[sp].d(T)[sp].d([m5C])[sp].d([m5C])[sp].d([m5C])[sp].d([m5C])[sp].d(G)[sp].d(T)[sp].d([m5C])[sp].d(T)[sp].d(T)[sp].[moe](T)p.[moe](G)p.[moe](G)[sp].[moe](T)}$$$$ (last 3' nucleoside missing) | 6
22 | RNA1{[moe](T)[sp].[moe](G)p.[moe](G)p.[moe]([m5C])p.d(A)[sp].d(G)[sp].d(T)[sp].d(A)[sp].d(T)[sp].d(T)[sp].d(A)[sp].d([m5C])[sp].d([m5C])[sp].d(T)[sp].[moe]([m5C])p.[moe](T)p.[moe](A)p.[moe]([m5C])[sp].[moe](T)}$$$$ (last 3' nucleoside missing) | 1
23 | RNA1{[moe](T)[sp].[moe]([m5C])p.[moe](T)p.[moe](G)p.[moe]([m5C])[sp].d([m5C])[sp].d(A)[sp].d(T)[sp].d(T)[sp].d(T)[sp].d(A)[sp].d(T)[sp].d([m5C])[sp].d(T)[sp].d(G)[sp].[moe](T)p.[moe](G)p.[moe]([m5C])[sp].[moe](T)}$$$$ (last 3' nucleoside missing) | 0
24 | RNA1{[moe](T)[sp].[moe](T)p.[moe](G)p.[moe](G)p.[moe]([m5C])[sp].d(A)[sp].d(G)[sp].d(T)[sp].d(A)[sp].d(T)[sp].d(T)[sp].d(A)[sp].d([m5C])[sp].d([m5C])[sp].d(T)[sp].[moe]([m5C])p.[moe](T)p.[moe](A)[sp].[moe]([m5C])}$$$$ (last 3' nucleoside missing) | 2
25 | RNA1{[moe]([m5C])[sp].[moe](A)p.[moe](G)p.[moe](T)p.[moe](A)p.d(T)[sp].d(T)[sp].d(A)[sp].d([m5C])[sp].d([m5C])[sp].d(T)[sp].d([m5C])[sp].d(T)[sp].d(A)[sp].d([m5C])[sp].[moe](T)p.[moe](A)p.[moe](G)[sp].[moe](T)}$$$$ (last 3' nucleoside missing) | 0
26 | RNA1{[moe](T)[sp].[moe](T)p.[moe](G)p.[moe](G)p.[moe]([m5C])p.[moe](A)p.d(G)[sp].d(T)[sp].d(A)[sp].d(T)[sp].d(T)[sp].d(A)[sp].d([m5C])[sp].d([m5C])[sp].d(T)[sp].d([m5C])[sp].[moe](T)p.[moe](A)[sp].[moe]([m5C])}$$$$ (last 3' nucleoside missing) | 0
